Source: ChEMBL document CHEMBL4765292, “Flexible diaminodihydrotriazine inhibitors of Plasmodium falciparum dihydrofolate reductase: Binding strengths, modes of binding and their antimalarial activities” (Eur J Med Chem, 2020)

Assays:
[1] = Inhibition of Plasmodium falciparum DHFR C59R/S108N/I164L mutant expressed in Escherichia coli BL21 using DHF as substrate by spectrophotometric analysis
[2] = tested on: Plasmodium falciparum; test: Antimalarial activity against Plasmodium falciparum K1CB1 harboring DHFR […] mutant infected in human erythrocytes assessed as reduction in [3H]-hypoxanthine incorporation pretreated for 20 hrs followed by [3H]-hypoxanthine addition measured after 20 hrs by radioactivity method; format: functional, organism-based; conditions: K1CB1, Erythrocyte
[3] = Inhibition of Plasmodium falciparum DHFR N51I/C59R/S108N/I164L mutant expressed in Escherichia coli BL21 using DHF as substrate by spectrophotometric analysis
[4] = Inhibition of Plasmodium falciparum DHFR N51I/C59R/S108N mutant expressed in Escherichia coli BL21 using DHF as substrate by spectrophotometric analysis
[5] = tested on: Plasmodium falciparum; test: Antimalarial activity against Plasmodium falciparum CsI-2 harboring DHFR C59R/S108N/I164L mutant infected in human erythrocytes assessed as reduction in [3H]-hypoxanthine incorporation pretreated for 20 hrs followed by [3H]-hypoxanthine addition measured after 20 hrs by radioactivity method; format: functional, organism-based; conditions: CsI-2, Erythrocyte
[6] = Inhibition of Plasmodium falciparum DHFR A16V/S108T mutant expressed in Escherichia coli BL21 using DHF as substrate by spectrophotometric analysis
[7] = tested on: Plasmodium falciparum; test: Antimalarial activity against Plasmodium falciparum V1/S harboring DHFR N51I/C59R/S108N/I164L mutant infected in human erythrocytes assessed as reduction in [3H]-hypoxanthine incorporation pretreated for 20 hrs followed by [3H]-hypoxanthine addition measured after 20 hrs by radioactivity method; format: functional, organism-based; conditions: Erythrocyte
[8] = tested on: Plasmodium falciparum; test: Antimalarial activity against Plasmodium falciparum W2 harboring DHFR N51I/C59R/S108N mutant infected in human erythrocytes assessed as reduction in [3H]-hypoxanthine incorporation pretreated for 20 hrs followed by [3H]-hypoxanthine addition measured after 20 hrs by radioactivity method; format: functional, organism-based; conditions: W2, Erythrocyte
[9] = tested on: Plasmodium falciparum; test: Antimalarial activity against Plasmodium falciparum TM4/8.2 infected in human erythrocytes assessed as reduction in [3H]-hypoxanthine incorporation pretreated for 20 hrs followed by [3H]-hypoxanthine addition measured after 20 hrs by radioactivity method; format: functional, organism-based
[10] = Inhibition of Plasmodium falciparum DHFR expressed in Escherichia coli BL21 using DHF as substrate by spectrophotometric analysis
[11] = Inhibition of Plasmodium falciparum DHFR […] mutant expressed in Escherichia coli BL21 using DHF as substrate by spectrophotometric analysis
[12] = tested on: Plasmodium falciparum; test: Antimalarial activity against Plasmodium falciparum T9/94 RC17 harboring DHFR A16V/S108T mutant infected in human erythrocytes assessed as reduction in [3H]-hypoxanthine incorporation pretreated for 20 hrs followed by [3H]-hypoxanthine addition measured after 20 hrs by radioactivity method; format: functional, organism-based; conditions: T9/94 RC17, Erythrocyte

Row | Structure (SMILES) | Ki [1] | IC50 [2] | Ki [3] | Ki [4] | IC50 [5] | Ki [6] | IC50 [7] | IC50 [8] | IC50 [9] | Ki [10] | Ki [11] | IC50 [12]
1 | CC1(C)N=C(N)N=C(N)N1OCCCCOCc1ccccc1 | 12.2 nM | 2400 nM | 18.2 nM | 2.9 nM | 4800 nM | 10.5 nM | 20800 nM | 3200 nM | 400 nM | 1 nM | 2.5 nM | –
2 | CC1(C)N=C(N)N=C(N)N1OCCCNS(=O)(=O)c1ccccc1 | 51 nM | 5400 nM | 184 nM | 10 nM | 73400 nM | 61 nM | 61900 nM | 15200 nM | 51 nM | 0.8 nM | 4.3 nM | 2200 nM
3 | CC1(C)N=C(N)N=C(N)N1OCCCSC1CCCCC1 | 1.5 nM | 260 nM | 1.4 nM | 0.8 nM | 260 nM | 3 nM | 3500 nM | 190 nM | 3.3 nM | 0.6 nM | 1.1 nM | 6.9 nM
4 | Cc1ccc(S(=O)(=O)NCCCON2C(N)=NC(N)=NC2(C)C)cc1 | 73 nM | 9600 nM | 143 nM | 7.5 nM | 31200 nM | 186 nM | 23500 nM | 15100 nM | 440 nM | 1 nM | 4 nM | 3900 nM
5 | CC1(C)N=C(N)N=C(N)N1OCCCOCc1ccccc1 | 4.2 nM | 48 nM | 4.1 nM | 1.2 nM | 400 nM | 5.3 nM | 1210 nM | 51 nM | 14 nM | 0.6 nM | 1.3 nM | –
6 | CC1(C)N=C(N)N=C(N)N1OCCCN(Cc1ccccc1)c1ccc(Cl)cc1 | 2.3 nM | 400 nM | 2 nM | 1.1 nM | 3100 nM | 6.1 nM | 3600 nM | 510 nM | 31 nM | 0.6 nM | 0.8 nM | 49 nM
7 | CC1(C)N=C(N)N=C(N)N1OCC(=O)NCc1ccc(Cl)cc1 | 13 nM | 530 nM | 16.3 nM | 4.3 nM | 3600 nM | 72.2 nM | 11000 nM | 2500 nM | 2400 nM | 1.7 nM | 3.6 nM | 430 nM
8 | CC1(C)N=C(N)N=C(N)N1OCCNS(=O)(=O)c1ccc(Cl)cc1 | 114 nM | 5900 nM | 127 nM | 10.2 nM | 25300 nM | 133 nM | > 50000 nM | 12700 nM | 1200 nM | 1.3 nM | 4.7 nM | 3800 nM
9 | Cc1ccc(S(=O)(=O)NCCON2C(N)=NC(N)=NC2(C)C)cc1 | 139 nM | 9700 nM | 229 nM | 10.2 nM | 63300 nM | 308 nM | 62200 nM | 21500 nM | 2000 nM | 1.8 nM | 6.4 nM | 18700 nM
10 | NC1=NC(c2ccccc2)N(OCCc2ccccc2)C(N)=N1 (centres undefined) | 13 nM | 16200 nM | 14 nM | 4.1 nM | 20500 nM | 8.3 nM | 24700 nM | 16800 nM | 80 nM | 1.4 nM | 3.3 nM | 3.1 nM
11 | CC1(C)N=C(N)N=C(N)N1OCCNS(=O)(=O)c1ccc([N+](=O)[O-])cc1 | 229 nM | 3100 nM | 235 nM | 17.9 nM | 3500 nM | 222 nM | 3500 nM | 3600 nM | 2200 nM | 3.2 nM | 9.85 nM | 3500 nM
12 | CC1(C)N=C(N)N=C(N)N1OCCNS(=O)(=O)c1ccccc1 | 169 nM | 10000 nM | 234 nM | 5.8 nM | 76500 nM | 215 nM | 77400 nM | 26000 nM | 4400 nM | 2.7 nM | 4.8 nM | 15000 nM
13 | CC1(C)N=C(N)N=C(N)N1OCCCNC(=O)c1ccccc1 | 6.9 nM | 230 nM | 13.8 nM | 2.6 nM | 2400 nM | 14.7 nM | 5400 nM | 230 nM | 29 nM | 1.4 nM | 2.6 nM | 40 nM
14 | CC1(C)N=C(N)N=C(N)N1OCC(=O)Nc1ccccc1 | 16.4 nM | 7200 nM | 17.8 nM | 6.7 nM | 17100 nM | 131 nM | 18100 nM | 13900 nM | 1900 nM | 3.7 nM | 5.2 nM | 5200 nM
15 | CC1(C)N=C(N)N=C(N)N1OCCCNc1ccccc1 | 1.8 nM | 240 nM | 4.8 nM | 1.1 nM | 3200 nM | 5.7 nM | 2300 nM | 300 nM | 1850 nM | 0.6 nM | 0.8 nM | –
16 | CC1(C)N=C(N)N=C(N)N1OCCCN(Cc1ccccc1)c1ccc(Cl)c(Cl)c1 | 2.7 nM | 2300 nM | 1.7 nM | 1.2 nM | 5000 nM | 5.3 nM | 5300 nM | 2100 nM | 150 nM | 1 nM | 1.6 nM | 290 nM
17 | CC1(C)N=C(N)N=C(N)N1OCCOc1cc(Cl)c(Cl)cc1Cl | 11 nM | 490 nM | 16 nM | 2.2 nM | 3300 nM | 6.1 nM | 11500 nM | 3010 nM | 750 nM | 1 nM | 1.2 nM | –
18 | CC1(C)N=C(N)N=C(N)N1OCc1ccccc1 | 30 nM | 1800 nM | 45 nM | 5.9 nM | 47600 nM | 46 nM | > 100000 nM | 4500 nM | 2670 nM | 0.4 nM | 2.8 nM | –
19 | NC1=NC(c2ccccc2)N(CCCOc2cc(Cl)c(Cl)cc2Cl)C(N)=N1 (centres undefined) | 5.6 nM | 2900 nM | 5.7 nM | 2.6 nM | 3100 nM | 7.3 nM | 2600 nM | 2300 nM | 750 nM | 1.2 nM | 2.1 nM | 18 nM
20 | NC1=NC(c2ccccc2)N(OCCCc2ccccc2)C(N)=N1 (centres undefined) | 3.2 nM | 190 nM | 3.6 nM | 0.6 nM | 4500 nM | 7 nM | 4800 nM | 130 nM | 20 nM | 2.2 nM | 0.9 nM | 0.52 nM
21 | CC1(C)N=C(N)N=C(N)N1OCC(=O)Nc1ccc(Cl)cc1 | 8.8 nM | 4000 nM | 9.7 nM | 4 nM | 7900 nM | 56.8 nM | 16700 nM | 3700 nM | 3000 nM | 2.3 nM | 3.8 nM | 5000 nM
22 | CC1(C)N=C(N)N=C(N)N1OCCCN(Cc1ccccc1)Cc1ccccc1 | 3.1 nM | 350 nM | 5.4 nM | 3.1 nM | 500 nM | 6.3 nM | 5400 nM | 500 nM | 22 nM | 1.5 nM | 2.9 nM | 25 nM
23 | NC1=NC(c2ccccc2)N(OCCCOc2ccc(Cl)cc2)C(N)=N1 (centres undefined) | 0.8 nM | 85 nM | 0.5 nM | 0.8 nM | 720 nM | 1.6 nM | 2300 nM | 100 nM | 12 nM | 0.4 nM | 1.1 nM | 0.58 nM
24 | CCN(CCCON1C(N)=NC(N)=NC1(C)C)c1ccc(Cl)c(Cl)c1 | 2.2 nM | 35 nM | 3.9 nM | 2 nM | 46 nM | 2.8 nM | 2900 nM | 71 nM | 26 nM | 1.4 nM | 2.1 nM | –
25 | CC1(C)N=C(N)N=C(N)N1c1ccc(Cl)cc1 [CYCLOGUANIL] | 285 nM | 2400 nM | 421 nM | 31.4 nM | 37900 nM | 1310 nM | > 100000 nM | 6080 nM | 37 nM | 1.5 nM | 43.2 nM | 3700 nM
